pIC50: −log10 of the molar value. Like-named read-outs stand apart in the source and are kept apart here.
What was measured:
[1] = target: farnesyl protein transferase (FPT), H-ras (Homo sapiens, UniProt P49354+P49356); test: FPT IC50 (H-ras), inhibition of farnesyl protein transferase, in vitro enzyme assay; type: biochemical; settings: for IC50: Table 3, H-ras, read-out: FPT IC50 (nM) (H-ras)
[2] = system: COS Cell; test: COS Cell IC50 (Cell-Based Assay); settings: COS, Table 3; read-out: COS Cell IC50
[3] = system: Human tumor cells; test: Soft Agar Assay (anchorage-independent growth); type: cell-based; settings: Homo sapiens, Table 5; read-out: Soft Agar IC50
[4] = target: farnesyl protein transferase (FPT), K-ras (Homo sapiens, UniProt P49354+P49356); test: FPT IC50 (K-ras), inhibition of farnesyl protein transferase, in vitro enzyme assay; type: biochemical
Experimental: FPT IC50 (inhibition of farnesyl protein transferase, in vitro enzyme assay) and COS Cell IC50 (Cell-Based Assay) were determined following the assay procedures described in WO 95/10516, published Apr. 20, 1995. GGPT IC50 (inhibition of geranylgeranyl protein transferase, in vitro enzyme assay), Cell Mat Assay, and anti-tumor activity (in vivo anti-tumor studies) could be determined by the assay procedures described in WO 95/10516. The disclosure of WO 95/10516 is incorporated herein by reference thereto.

Compound	IC50 [1] [nM]	melting point [°C]	pIC50 [3]	pIC50 ([1]; Table 4, read-out: FPT IC50)	pIC50 [4]	pIC50 [2]
COC(=O)CCCC(=O)N1CCC(CC(=O)N2CCC(C3c4ncc(Br)cc4CCc4cc(Cl)cc(Br)c43)CC2)CC1 (single isomer, unassigned; (+)) [Example 24]	4.8	101 to 102	–	–	–	8.00
CN(C)CCC(=O)N1CCC(CC(=O)N2CCC(C3c4ncc(Br)cc4CCc4cc(Cl)cc(Br)c43)CC2)CC1 (single isomer, unassigned; (+)) [Example 20]	5.8	82 to 84	6.72	–	7.70	8.00
O=C(CCN1CCCCC1)N1CCC(CC(=O)N2CCC(C3c4ncc(Br)cc4CCc4cc(Cl)cc(Br)c43)CC2)CC1 (single isomer, unassigned; (+)) [Example 22]	< 2.6	127 to 128	–	–	–	7.37
CN(C)CCCC(=O)N1CCC(CC(=O)N2CCC(C3c4ncc(Br)cc4CCc4cc(Cl)cc(Br)c43)CC2)CC1 (single isomer, unassigned; (+)) [Example 19]	35	69 to 71	–	–	–	–

Now from value to compound, other results behind:

IC50 [1] [nM]	melting point [°C]	pIC50 [3]	pIC50 ([1]; Table 4, read-out: FPT IC50)	pIC50 [4]	Compound	pIC50 [2]
5.1	114 to 115	6.60	–	–	COC(=O)CCC(=O)N1CCC(CC(=O)N2CCC(C3c4ncc(Br)cc4CCc4cc(Cl)cc(Br)c43)CC2)CC1 (single isomer, unassigned; (+)) [Example 25]	7.41
–	77.2 to 78.1	–	8.55	–	CCOC(=O)CC(=O)N1CCC(CC(=O)N2CCC([C@H]3c4ncc(Br)cc4CCc4cc(Cl)cc(Br)c43)CC2)CC1 [Example 30]	–
< 2	77 to 78	–	–	–	CCOC(=O)CC(=O)N1CCC(CC(=O)N2CCC(C3c4ncc(Br)cc4CCc4cc(Cl)cc(Br)c43)CC2)CC1 (single isomer, unassigned; (+)) [Example 26]	6.90
